Here are results for 21 molecules from PubChem BioAssay AID248 (DTP/NCI, 2004).

The assay relates to L1210 leukemia ip in BDF1 mice, survival T/C. Kind of assay: NCI In Vivo Anticancer Drug Screen. Data for tumor model L1210 Leukemia (intraperitoneal) in B6D2F1 (BDF1) mice. The conditions noted are these: endpoint: mean survival time, higher = longer survival. An outline of the steps: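 Ratio derived from survival: compound-dosed mice over vehicle-dosed mice, all bearing a transplantable tumor.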

The mark [1] stands for this setting: dose: 25.0 mg/kg/injection, schedule: Q01DX009 (ip), vehicle: Klucel (hydroxypropylcellulose) (HPC).
Setting [2] is: dose: 100.0 mg/kg/injection, schedule: Q04DX002 (ip), vehicle: saline with Tween-80.
The mark [3] stands for this setting: dose: 200.0 mg/kg/injection, schedule: Q04DX002 (ip), vehicle: saline with Tween-80.
[4] abbreviates: dose: 400.0 mg/kg/injection, schedule: Q04DX002 (ip), vehicle: saline with Tween-80.
Where [5] appears, read: dose: 100.0 mg/kg/injection, schedule: Q01DX009 (ip), vehicle: Klucel (hydroxypropylcellulose) (HPC).
Where [6] appears, read: dose: 100.0 mg/kg/injection, schedule: Q04DX003 (ip), vehicle: Klucel (hydroxypropylcellulose) (HPC).
Setting [7] is: dose: 200.0 mg/kg/injection, schedule: Q01DX009 (ip), vehicle: Klucel (hydroxypropylcellulose) (HPC).
[8] abbreviates: dose: 25.0 mg/kg/injection, schedule: Q04DX003 (ip), vehicle: Klucel (hydroxypropylcellulose) (HPC).
Where [9] appears, read: dose: 50.0 mg/kg/injection, schedule: Q04DX003 (ip), vehicle: Klucel (hydroxypropylcellulose) (HPC).
[10] abbreviates: dose: 100.0 mg/kg/injection, schedule: Q01DX001 (ip), vehicle: saline.

“And” between values parts separate entries of the source, which are not always exact repeats. Equal values may be shown once. Toxic doses and inconclusive results are not listed. Peptide text beside a SMILES is read from it. * marks the point of attachment. ONp = O=[N+]([O-])c1ccc(O*)cc1; Tos = Cc1ccc(S(=O)(=O)*)cc1

For the molecule `C=CC1=CC(=O)OC1=O`, the T/C (dose: 10.0 mg/kg/injection, schedule: Q01DX001 (ip), vehicle: saline) was 88 % of control.
Regarding `C[n+]1cccc(C(=O)NCCc2c[nH]c3ccccc23)c1`, the T/C by setting is: (dose: 75.0 mg/kg/injection, schedule: Q01DX001 (ip), vehicle: saline) 96 % of control; (dose: 150.0 mg/kg/injection, schedule: Q01DX001 (ip), vehicle: saline) 104 % of control.
As to `C1CCC(=[N+]2CCCC2)CC1`, the T/C was 93 % of control (dose: 100.0 mg/kg/injection, schedule: Q01DX009 (ip), vehicle: saline); 106 % of control (dose: 100.0 mg/kg/injection, schedule: Q04DX003 (ip), vehicle: saline); 101 % of control (dose: 200.0 mg/kg/injection, schedule: Q01DX009 (ip), vehicle: saline); 104 % of control (dose: 200.0 mg/kg/injection, schedule: Q04DX003 (ip), vehicle: saline); 88 % of control (dose: 400.0 mg/kg/injection, schedule: Q01DX009 (ip), vehicle: saline); 102 % of control (dose: 400.0 mg/kg/injection, schedule: Q04DX003 (ip), vehicle: saline).
For the molecule `N#Cc1ccccc1OCCCOc1ccccc1C#N`, the T/C reads like this: (dose: 75.0 mg/kg/injection, schedule: Q01DX009 (ip), vehicle: Klucel (hydroxypropylcellulose) (HPC)) 100 % of control; (dose: 150.0 mg/kg/injection, schedule: Q01DX009 (ip), vehicle: Klucel (hydroxypropylcellulose) (HPC)) 99 % of control; (dose: 300.0 mg/kg/injection, schedule: Q01DX009 (ip), vehicle: Klucel (hydroxypropylcellulose) (HPC)) 106 % of control.
With `Clc1c(Cl)c([O][Sn]([c]2ccccc2)([c]2ccccc2)[c]2ccccc2)c(Cl)c(Cl)c1[O][Sn]([c]1ccccc1)([c]1ccccc1)[c]1ccccc1`, the T/C is 108 % of control (dose: 3.12 mg/kg/injection, schedule: Q01DX009 (ip), vehicle: Klucel (hydroxypropylcellulose) (HPC)); 91 % of control (dose: 6.25 mg/kg/injection, schedule: Q01DX009 (ip), vehicle: Klucel (hydroxypropylcellulose) (HPC)); 90 % of control under setting [1].
With `COc1ccc(C(N)=O)cc1`, the T/C is 94 % of control under setting [2], 94 % of control under setting [3] and 109 % of control under setting [4].
`O=C(O)C1c2ccccc2Cc2ccccc21`: the T/C is 110 % of control under setting [5]; 103 % of control under setting [6]; 101 % of control under setting [7]; 97 % of control (dose: 200.0 mg/kg/injection, schedule: Q04DX003 (ip), vehicle: Klucel (hydroxypropylcellulose) (HPC)); 106 % of control (dose: 400.0 mg/kg/injection, schedule: Q04DX003 (ip), vehicle: Klucel (hydroxypropylcellulose) (HPC)).
Consider `CC(=O)Oc1c(C)cc([N+](=O)[O-])cc1[N+](=O)[O-]`, for which the T/C is 91 % of control under setting [8] and 86 % of control under setting [9].
As for `O=C(c1ccccc1)C1CSSC1c1ccccc1` (configuration not stated), the T/C runs as follows: (dose: 12.5 mg/kg/injection, schedule: Q04DX003 (ip), vehicle: Klucel (hydroxypropylcellulose) (HPC)) 100 % of control; under setting [8], 100 % of control; under setting [9], 97 % of control.
As for `COc1ccc(C(=O)N/N=C/c2ccccc2Cl)cc1`, the T/C under setting [5] was 106 % of control; the T/C under setting [7] is 97 % of control; the T/C (dose: 400.0 mg/kg/injection, schedule: Q01DX009 (ip), vehicle: Klucel (hydroxypropylcellulose) (HPC)) is 102 % of control.
On to `C1=CC2(CCCC1)OCCO2`, for which the T/C was 100 % of control (dose: 100.0 mg/kg/injection, schedule: Q04DX003 (ip), vehicle: saline with Tween-80); 97 % of control (dose: 200.0 mg/kg/injection, schedule: Q04DX003 (ip), vehicle: saline with Tween-80); 108 % of control (dose: 400.0 mg/kg/injection, schedule: Q04DX003 (ip), vehicle: saline with Tween-80).
Regarding `CC(=O)OCN1C(=O)N(COC(C)=O)C(c2ccccc2)(c2ccccc2)C1=O`, the T/C reads like this: (dose: 100.0 mg/kg/injection, schedule: Q01DX009 (ip), vehicle: saline with Tween-80) 102 % of control; under setting [2], 102 % of control; (dose: 200.0 mg/kg/injection, schedule: Q01DX009 (ip), vehicle: saline with Tween-80) 87 % of control; under setting [3], 102 % of control; under setting [4], 106 % of control.
For the molecule `Cc1ccc(S(=O)(=O)NCC(=O)NCC(=O)Oc2ccc([N+](=O)[O-])cc2)cc1` (Tos-Gly-Gly-ONp), the T/C reads like this: (dose: 100.0 mg/kg/injection, schedule: Q04DX003 (ip), vehicle: other) 105 % of control; (dose: 200.0 mg/kg/injection, schedule: Q04DX003 (ip), vehicle: other) 102 % of control; (dose: 400.0 mg/kg/injection, schedule: Q04DX003 (ip), vehicle: other) 98 % of control.
Regarding `O=C(O)CN(Cc1ccccc1)C(=O)COc1ccc(Cl)c(Cl)c1`, the T/C is 100 % of control (dose: 100.0 mg/kg/injection, schedule: Q04DX003 (ip), vehicle: gum acacia); 92 % of control (dose: 200.0 mg/kg/injection, schedule: Q04DX003 (ip), vehicle: gum acacia); 91 % of control (dose: 400.0 mg/kg/injection, schedule: Q04DX003 (ip), vehicle: gum acacia).
For `O=[N+]([O-])c1ccccc1N=Nc1c(O)[nH]c2c(Cl)cc(Cl)cc12`, the T/C under setting [10] was 105 % of control.
As for `COC1CC(OS(=O)(=O)c2ccc(C)cc2)C(OS(=O)(=O)c2ccc(C)cc2)C(C)O1` (configuration not stated), the T/C by setting is: under setting [10], 100 % of control; (dose: 200.0 mg/kg/injection, schedule: Q01DX001 (ip), vehicle: saline) 98 % of control; (dose: 400.0 mg/kg/injection, schedule: Q01DX001 (ip), vehicle: saline) 98 % of control.
Consider `CC(=O)OC(C)(C)/C=C/C(=O)C(C)(O)C1C(O)CC2(C)C3CC=C4C(C=C(OC5OC(CO)C(O)C(O)C5O)C(=O)C4(C)C)C3(C)C(=O)CC12C` (configuration not stated), for which the T/C by setting is: (dose: 25.0 mg/kg/injection, schedule: Q04DX002 (ip), vehicle: saline with Tween-80) 98 % of control; (dose: 50.0 mg/kg/injection, schedule: Q04DX002 (ip), vehicle: saline with Tween-80) 98 % of control; under setting [2], 96 % of control and 105 % of control.
Consider `CCCCCCCCCCCCOC(=O)c1cc(O)c(O)c(O)c1`, for which the T/C (dose: 75.0 mg/kg/injection, schedule: Q01DX001 (ip), vehicle: acetone) was 103 % of control.
For the molecule `Cc1cccc(SC(=O)SC(C)CN)c1` (configuration not stated), the T/C is 99 % of control (dose: 25.0 mg/kg/injection, schedule: Q04DX002 (ip), vehicle: saline); 105 % of control (dose: 50.0 mg/kg/injection, schedule: Q04DX002 (ip), vehicle: saline); 94 % of control and 99 % of control (dose: 100.0 mg/kg/injection, schedule: Q04DX002 (ip), vehicle: saline).
For the molecule `CS(=O)(=O)OCCN=C(N)N[N+](=O)[O-]`, the T/C is 95 % of control (dose: 20.0 mg/kg/injection, schedule: Q04DX003 (ip), vehicle: Klucel (hydroxypropylcellulose) (HPC)); 95 % of control (dose: 40.0 mg/kg/injection, schedule: Q04DX003 (ip), vehicle: Klucel (hydroxypropylcellulose) (HPC)); 97 % of control (dose: 80.0 mg/kg/injection, schedule: Q04DX003 (ip), vehicle: Klucel (hydroxypropylcellulose) (HPC)); 105 % of control under setting [6].
In the case of `CC12CCC3c4ccc([O-])c([N+]#N)c4CCC3C1CCC2=O` (configuration not stated), the T/C under setting [1] is 103 % of control and the T/C (dose: 50.0 mg/kg/injection, schedule: Q01DX009 (ip), vehicle: Klucel (hydroxypropylcellulose) (HPC)) was 87 % of control.
